Assay results as given in patent US9145411B2, “Substituted amino-pyrimidine derivatives” (Asana Biosciences, LLC, priority 2012, dated 2015).
pIC50: −log10 of the molar value.

Key:
pS6RP = test: In vivo PK/PD study, U87MG tumor xenograft, pS6RP; conditions: U87MG tumor-bearing xenograft mice, 50 mg/kg po
Experimental: PC3 cells are cultured at 37° C. in a 5% CO2 incubator using Hams F12 K medium. Ten million (10^7) cells are injected subcutaneously to the right flank region of athymic male mice (Harlan, age: 6-7 weeks, weight: about 20 g). Tumor bearing mice are randomized when the tumor volume reaches about 250 mm^3 and three mice are used per each time point. Test compounds of formula (I) are typically formulated in 40% HPCD in 1×PBS, pH 7.4 or in 10% Ethanol/40% Solutol/50% 50 mM aq. methanesulfonic acid and dosed orally at 50 mg/kg single dose (dose volume—10 mL/kg). Plasma and tumor samples are collected at 0 (vehicle control animals), 1, 4 and 24 hours post dosing. Blood is drawn (retro orbital) to a tube containing 0.2% EDTA for plasma collection. […] Tumor and plasma drug concentrations are measured for PK analysis using LC-MS.
Snap frozen tumor samples are pulverized in a mortar (Belart) containing liquid nitrogen and tumor powder is stored at −80° C. until analysis. […] The detection for pAKT is based on chemiluminescence and pS6RP is based on absorbance. […]
In vivo pharmacokinetic/pharmacodynamic (PK/PD) studies were carried out in a similar manner using U87MG tumor cells (glioma cancer cell line with a PTEN null mutation) and the corresponding tumor-bearing xenograft mice, and compounds of the invention were determined to be active in this assay. […]

U87MG cells = test: XTT assay for cell viability, U87MG cells; type: cell-based; conditions: Homo sapiens, U-87 MG, read-out: inhibition of U87MG cell proliferation, IC50
Experimental: (§1) Using a commercial kit from Sigma Aldrich (Catalog #X34251) and following its protocol, PC3 cells in the log phase of growth were employed and seeded at an optimal density of 1000 cell/well on to 96 well plates and incubated for 24 hours followed by the addition of compounds of formula (I) in serial dilutions. Compound dilutions were made in DMSO. The cells were incubated with the compounds of formula (I) for 96 hours and XTT tetrazolium dye (Sigma, USA) was subsequently added and incubated at 37° C. After the color formation, absorbance was measured at 465 nm in a Spectramax® Gemini spectrophotometer. EC50 values were calculated using a sigmoidal dose response curve fit in GraphPad Prism® v5 software. The tested compounds of formula (I) which caused inhibition of PC3 cell proliferation as determined by this assay protocol are shown in Table 2.
(§2) XTT assays for cell viability were also determined in U87MG, BT474 cells and T47D cells, in a similar manner to the protocol described above. The compounds cause inhibition of U87MG, BT474 and T47D cell proliferation as determined by these assays. For example, the compounds of Examples 3 and 7 caused inhibition of U87MG, BT474 and T47D cell proliferation with IC50 values<600 nM.

BT474 cells = test: XTT assay for cell viability, BT474 cells; type: cell-based; conditions: Homo sapiens, BT-474, read-out: inhibition of BT474 cell proliferation, IC50
Experimental: as §1, §2

PI3Kα mutation E545K = PI3Kα mutation E545K (Homo sapiens, UniProt P42336, E545K); test: PI3 Kinase TR-FRET assay, PI3Kα mutation E545K; type: biochemical; conditions: read-out: inhibition of PI3Kα mutation E545K, IC50
Sequence of PI3Kα mutation E545K (P42336 whole entry E545K, the tested form may be a part, canonical isoform): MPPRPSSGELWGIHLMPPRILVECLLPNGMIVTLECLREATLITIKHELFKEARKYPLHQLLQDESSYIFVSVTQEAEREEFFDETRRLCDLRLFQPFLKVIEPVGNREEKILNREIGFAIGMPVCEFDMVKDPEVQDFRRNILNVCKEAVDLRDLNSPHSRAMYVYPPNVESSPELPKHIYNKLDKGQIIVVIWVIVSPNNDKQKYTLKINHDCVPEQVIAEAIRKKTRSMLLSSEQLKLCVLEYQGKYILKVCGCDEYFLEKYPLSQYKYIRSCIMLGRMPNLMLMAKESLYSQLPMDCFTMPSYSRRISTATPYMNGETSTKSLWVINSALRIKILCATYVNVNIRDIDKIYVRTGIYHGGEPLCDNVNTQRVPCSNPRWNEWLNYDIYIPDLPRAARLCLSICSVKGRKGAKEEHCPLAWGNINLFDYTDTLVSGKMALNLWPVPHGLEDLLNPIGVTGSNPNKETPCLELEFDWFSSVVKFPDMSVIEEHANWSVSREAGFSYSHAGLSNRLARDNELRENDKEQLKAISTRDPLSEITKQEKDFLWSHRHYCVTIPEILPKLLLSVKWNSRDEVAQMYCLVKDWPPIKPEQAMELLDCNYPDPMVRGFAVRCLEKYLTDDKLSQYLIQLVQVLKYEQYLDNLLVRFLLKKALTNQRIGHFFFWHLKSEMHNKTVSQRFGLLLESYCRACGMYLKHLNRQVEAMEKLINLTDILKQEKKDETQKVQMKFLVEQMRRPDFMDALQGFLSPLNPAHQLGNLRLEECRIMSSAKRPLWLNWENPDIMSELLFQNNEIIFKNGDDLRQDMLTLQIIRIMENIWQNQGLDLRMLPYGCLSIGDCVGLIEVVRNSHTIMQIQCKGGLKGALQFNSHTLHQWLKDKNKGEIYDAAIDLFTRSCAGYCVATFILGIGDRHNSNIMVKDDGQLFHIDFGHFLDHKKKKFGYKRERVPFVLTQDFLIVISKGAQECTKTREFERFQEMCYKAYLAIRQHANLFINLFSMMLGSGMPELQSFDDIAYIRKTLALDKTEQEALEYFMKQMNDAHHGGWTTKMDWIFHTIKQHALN
Sequence of PI3Kα mutation E545K (P27986 whole entry partner, the tested form may be a part, canonical isoform): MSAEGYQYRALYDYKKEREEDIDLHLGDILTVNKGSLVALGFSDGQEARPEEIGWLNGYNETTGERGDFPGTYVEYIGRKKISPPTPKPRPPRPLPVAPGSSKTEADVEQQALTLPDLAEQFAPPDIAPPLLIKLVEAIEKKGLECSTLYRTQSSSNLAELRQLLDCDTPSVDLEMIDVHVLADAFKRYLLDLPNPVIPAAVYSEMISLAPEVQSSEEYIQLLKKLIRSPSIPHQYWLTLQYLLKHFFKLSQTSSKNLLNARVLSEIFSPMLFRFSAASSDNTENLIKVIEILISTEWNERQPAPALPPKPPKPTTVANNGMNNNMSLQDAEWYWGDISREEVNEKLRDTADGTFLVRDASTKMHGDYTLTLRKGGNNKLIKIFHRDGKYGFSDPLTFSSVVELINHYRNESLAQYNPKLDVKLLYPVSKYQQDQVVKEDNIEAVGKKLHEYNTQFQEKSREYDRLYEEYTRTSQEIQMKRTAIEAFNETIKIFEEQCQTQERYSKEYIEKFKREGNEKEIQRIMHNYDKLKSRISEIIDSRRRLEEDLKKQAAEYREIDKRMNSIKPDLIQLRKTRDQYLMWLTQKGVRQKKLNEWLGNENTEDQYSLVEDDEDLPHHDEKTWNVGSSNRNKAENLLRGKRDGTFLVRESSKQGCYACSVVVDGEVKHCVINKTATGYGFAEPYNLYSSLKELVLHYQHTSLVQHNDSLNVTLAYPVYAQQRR
Experimental: The ability of compounds of the invention to inhibit PI3K activity was determined in a homogeneous TR-FRET assay using a PI3K assay kit (Millipore, USA; cat #33-016) according to manufacturer's instructions. PI3-Kinases (isoforms α, β, γ and δ) catalyze the phosphorylation of phosphatidylinositol, PIP2 to PIP3 in the presence of ATP and Mg^2+. The PIP3 product is detected by displacement of biotin-PIP3 from an energy transfer complex consisting of Europium labeled anti-GST monoclonal antibody, a GST-tagged PH domain, biotinylated PIP3 and Streptavidin-APC. Excitation of Europium in the complex results in an energy transfer to the APC and a fluorescence emission at 665 nm. The PIP3 product displaces biotin-PIP3 from the complex resulting in a loss of energy transfer and thus a decrease in signal.
To test for the ability of compounds to inhibit the activity of PI3Kα (wild-type), exemplary compounds of formula (I) were dissolved in DMSO and directly distributed into 384-well plates at a volume of 0.5 μL. 14.5 μL of P110/P85α/PIP2 mixture in buffer (obtained from the Millipore kit) containing MgCl2 (40 mM) and DTT (5 mM) was added to compound wells and incubated for 60 minutes at room temperature. P110/P85α was expressed in SF9 insect cells and purified nickel column extraction. Five ng of wild-type P110/P85α was used in the assay. The kinase reaction was started by the addition of ATP. The assay concentrations of both PIP2 and ATP were 10 μM. The reaction mixture was incubated for 30 minutes at room temperature and was terminated by the addition of stop mix and detection mix. Fluorescence was measured at 615 and 665 nm upon excitation at 340 nm in a Victor™ V5 fluorometer (Perkin Elmer, USA). The fluorescence emission ratio at 665 to 615 nm, proportional to the kinase activity, was plotted against the compound concentration to generate dose-response curves and IC50 values were determined using GraphPad Prism® 5 software.
The activity of PI3Kα mutations H1047R and E545K were assayed in a similar manner to the assay protocol described above for PI3Kα (wild type). The compounds of formula (I) caused inhibition of PI3Kα mutations H1047R (a mutation associated with breast and gastric cancers) and E545K (a mutation associated with colorectal tumors, glioblastomas, gastric cancers, breast cancers, and lung cancers). For example, each of the compounds of Example 3, 7, 21, 47, 48 and 49 caused inhibition of each of the PI3Kα mutations H1047R and E545K with IC50 values<50 nM.

T47D cells = test: XTT assay for cell viability, T47D cells; type: cell-based; conditions: Homo sapiens, read-out: inhibition of T47D cell proliferation, IC50
Experimental: as §1, §2

pIC50 (U87MG cells) | pIC50 (BT474 cells) | pIC50 (PI3Kα mutation E545K) | pIC50 (T47D cells) | SMILES | suppression of pS6RP (pS6RP)
> 6.22 | > 6.22 | > 7.30 | > 6.22 | CC(=O)Nc1cccc(-c2cnc3c(N4CCOCC4)nc(-c4cnc(N)nc4)nc3c2)c1 [Example 3, N-(3-(2-(2-Aminopyrimidin-5-yl)-4-morpholinopyrido[3,2-d]pyrimidin-7-yl)-phenyl)acetamide] | suppression
> 6.22 | > 6.22 | > 7.30 | > 6.22 | Nc1ncc(-c2nc(N3CCOCC3)c3ncc(-c4cccc(NC(=O)C5CC5)c4)cc3n2)cn1 [Example 7, N-(3-(2-(2-Aminopyrimidin-5-yl)-4-morpholinopyrido[3,2-d]pyrimidin-7-yl)-phenyl)cyclopropanecarboxamide] | 
 |  |  |  | N#CC1(C(=O)Nc2cccc(-c3cnc4c(N5CCOCC5)nc(-c5cnc(N)nc5)nc4c3)c2)CC1 [Example 61, N-(3-(2-(2-amino-pyrimidin-5-yl)-4-morpholinopyrido[3,2-d]pyrimidin-7-yl)phenyl)-1-cyanocyclopropane-carboxamide] | suppression
